From patent publication US20140378409A1, “EFFECT POTENTIATOR FOR ANTITUMOR AGENTS” (TAIHO PHARMACEUTICAL CO., LTD., priority 2011, published 2014)
Where a name gives a salt, the structure may show the parent alone.

Columns and labels:
[1] = system: human colorectal cancer cell line HT-29; test: Antitumor effect potentiating activity for irinotecan hydrochloride, HT-29 subcutaneously transplanted model (nude mice); type: in vivo, human; nude mice; conditions: HT-29, nude mice, Day 15
Description: (§1) As an index of the antitumor effect, the TV on Day 15 was measured for each medicament treated group, and the relative tumor volume (RTV) for Day 1 and T/C (%) were calculated by the following formulas to evaluate the antitumor effect.
(§2) TV (mm^3)=(Major axis×minor axis^2)/2
(§3) RTV=(TV on Day 15)/(TV on Day 1)
(§4) T/C (%)=(Mean RTV value of test solution administered group)/(mean RTV value of control group)×100
(§5) Furthermore, as an index of toxicity, the body weight [BW] was measured over time, and the mean body weight change [BWC (%)] up to Day 15 with respect to Day 1 was calculated by the following formula (n: day of body weight measurement carried out at a rate of two times/week, and the final day of measurement corresponds to Day 15, which is the final evaluation day).
(§6) BWC (%)=[(BW on Day n)−(BW on Day 1)]/(BW on Day 1)×100

[2] = system: human lung cancer cell line NCI-H460; test: Antitumor effect potentiating activity for paclitaxel, NCI-H460 subcutaneously transplanted model (nude mice); type: in vivo, human; nude mice
Description: A human lung cancer cell line (NCI-H460) was transplanted into the right chest of a 5- to 6-week old male BALB/cA Jcl-nu mouse. After the tumor transplantation, the major axis (mm) and the minor axis (mm) of the tumor were measured to calculate the tumor volume (TV), and then mice were allocated to each treatment group such that the average TV's of each group would be uniform. The day on which this grouping (n=5) was performed was designated as Day 1.
The test solution for a paclitaxel (TAXOL injection, Bristol Myers K.K.) single administration group was prepared such that the administered dose of paclitaxel would be 60 mg/kg/day. Furthermore, the test solution for a compound (1) single administration group was prepared such that the administered dose would be 200 mg/kg/day. The compound (1) was orally administered every day for 14 consecutive days from Day 1, and paclitaxel was administered on Day 1 through the mouse tail vein. In a combined administration group, 200 mg/kg/day of the compound (1) and 60 mg/kg/day of paclitaxel were administered.
as §1, §2, §3, §4, §5, §6

[3] = system: human gastric cancer cell line NUGC-4; test: Antitumor effect potentiating activity for TS-1, NUGC-4 subcutaneously transplanted model (nude rats); type: in vivo, human; nude rats; conditions: NUGC-4, nude rats, Day 15, 14 days
Description: as §1, §2, §3, §4
A human gastric cancer cell line (NUGC-4) was transplanted into the right chest of a 5- to 6-week old male nude rat, and the rat was used in the same manner as described in Test Example 1. The test solution for a TS-1 (TS-1, manufactured by Taiho Pharmaceutical Co., Ltd.) single administration group was prepared such that the amount of administration of tegafur would be 18 mg/kg/day. Furthermore, the test solution of the compound (1) was prepared such that the amount of administration would be 250 mg/kg/day and 50 mg/kg/day.
The compound (1) and TS-1 were orally administered every day for 14 consecutive days from Day 1. In a combined administration group, 250 mg/kg/day and 50 mg/kg/day of the compound (1) and 18 mg/kg/day of TS-1 were administered, and the effects were evaluated in the same manner as described in Test Example 1.

[4] = system: human gastric cancer cell line NCI-N87; test: Antitumor effect potentiating activity for lapatinib, NCI-N87 subcutaneously transplanted model (nude mice); type: in vivo, human; nude mice; conditions: 14 days
Description: as §1, §2, §3, §4
A human gastric cancer cell line (NCI-N87) was transplanted into the right chest of a 5- to 6-week old male BALB/cA Jcl-nu mouse, and the mouse was used in the same manner as described in Test Example 1. The test solution for a lapatinib (manufactured by LC Laboratories, Inc.) single administration group was prepared such that the amount of administration would be 100 mg/kg/day. Furthermore, the test solution of the compound (1) was prepared such that the amount of administration would be 200 mg/kg/day of the compound (1).
The compound (1) and lapatinib were orally administered every day for 14 consecutive days from Day 1. In a combined administration group, 200 mg/kg/day of the compound (1) and 100 mg/kg/day of lapatinib were administered, and the effects were evaluated in the same manner as described in Test Example 1.

[5] = system: human gastric cancer cell line NUGC-4; test: Antitumor effect potentiating activity for paclitaxel, NUGC-4 subcutaneously transplanted model (nude mice); type: in vivo, human; nude mice; conditions: NUGC-4, nude mice, Day 15
Description: as §1, §2, §3, §4, §5, §6
A human gastric cancer cell line (NUGC-4) was transplanted into the right chest of a 5- to 6-week old male BALB/cA Jcl-nu mouse, and the mouse was used in the same manner as described in Test Example 1.
The test solution for a paclitaxel (TAXOL injection, manufactured by Bristol Myers K.K.) single administration group was prepared such that the amount of administration of paclitaxel would be 60 mg/kg/day.
The test solution of the compound (1) was prepared such that the amount of administration would be 12.5 mg/kg/day of the compound (1). In a combined administration group, 12.5 mg/kg/day of the compound (1) and 60 mg/kg/day of paclitaxel were administered. The compound (1) was orally administered every day for 14 consecutive days from Day 1, paclitaxel was administered on Day 1 through the mouse tail vein, and evaluation was made in the same manner as described in Test Example 1.
Furthermore, the body weight changes over time, which is an indicator of toxicity, were also evaluated in the same manner as described in Test Example 1.

[6] = system: human lung cancer cell line NCI-H441; test: Antitumor effect potentiating activity for gemcitabine hydrochloride, NCI-H441 subcutaneously transplanted model (nude mice); type: in vivo, human; nude mice
Description: as §1, §2, §3, §4
A human lung cancer cell line (NCI-H441) was transplanted into the right chest of a 5- to 6-week old male BALB/cA Jcl-nu mouse, and the mouse was used in the same manner as described in Test Example 1.
The test solution for a gemcitabine hydrochloride (GEMZAR, manufactured by Eli Lilly and Co.) single administration group was prepared such that the administered dose would be 240 mg/kg/day. Furthermore, the test solution of the compound (1) was prepared such that the administered dose would be 200 mg/kg/day.
The compound (1) was orally administered every day for 14 consecutive days from Day 1, and gemcitabine hydrochloride was administered on Day 1 and Day 8 through the mouse tail vein. Ina combined administration group, 200 mg/kg/day of the compound (1) and 240 mg/kg/day of gemcitabine hydrochloride were administered, and the effects were evaluated in the same manner as described in Test Example 1.

[7] = Day 15, 200 mg/kg/day oral, 14 consecutive days
[8] = Day 15, 240 mg/kg/day, tail vein Day 1 and Day 8
[9] = Day 15, lapatinib 100 mg/kg/day oral
[10] = Day 15, paclitaxel 60 mg/kg/day, tail vein Day 1
[11] = paclitaxel 60 mg/kg/day, tail vein Day 1

`CCc1c2c(nc3ccc(OC(=O)N4CCC(N5CCCCC5)CC4)cc13)-c1cc3c(c(=O)n1C2)COC(=O)[C@]3(O)CC` [Irinotecan hydrochloride, irinotecan hydrochloride, reference compound] was tested. Which “RTV (mean ± standard deviation)” value ([1]; 50 mg/kg/day, tail vein Day 1, Day 5, Day 9) did it give?
The value was 2.47 ± 0.40.

How did the “RTV (mean ± standard deviation)” value ([1]; 50 mg/kg/day oral, 14 days) turn out when `CNC(=O)c1cc2c(Oc3ccc(NC(=S)NC(=O)Cc4ccccc4)cc3F)ccnc2cc1OC` [compound (1), 4-(2-Fluoro-4-(3-(2-phenylacetyl)thioureido)phenoxy)-7-methoxy-N-methylquinoline-6-carboxamide] was run?
The value was 1.83 ± 0.29.

What about the “T/C (%)” value ([1]; 50 mg/kg/day oral, 14 days) of the same compound?
Its value is 44%.

What about the “RTV (mean ± standard deviation)” value [2, 7] of the same compound?
The value was 3.02 ± 0.63.

And the “T/C (%)” value [2, 7]?
Its value is 34%.

And the “RTV (mean ± standard deviation)” value ([3]; 50 mg/kg/day oral)?
Its value is 2.36 ± 0.44.

What about the “T/C (%)” value ([3]; 50 mg/kg/day oral) of the same compound?
Its value is 14%.

And the “RTV (mean ± standard deviation)” value ([3]; 250 mg/kg/day oral)?
The value was 1.60 ± 0.33.

And the “T/C (%)” value ([3]; 250 mg/kg/day oral)?
Its value is 10%.

What about the “RTV (mean ± standard deviation)” value ([4]; Day 15, 200 mg/kg/day oral) of the same compound?
Its value is 1.31 ± 0.23.

And the “T/C (%)” value ([4]; Day 15, 200 mg/kg/day oral)?
The value was 52%.

And the “RTV (mean ± standard deviation)” value ([5]; 12.5 mg/kg/day oral, 14 days)?
Its value is 6.63 ± 1.91.

And the “T/C (%)” value ([5]; 12.5 mg/kg/day oral, 14 days)?
Its value is 95%.

What about the “RTV (mean ± standard deviation)” value [6, 7] of the same compound?
The value was 1.26 ± 0.15.

What about the “T/C (%)” value [6, 7] of the same compound?
Its value is 18%.

Which results are given for `Nc1ccn([C@@H]2O[C@H](CO)[C@@H](O)C2(F)F)c(=O)n1` [Gemcitabine hydrochloride, gemcitabine hydrochloride, reference compound]?
RTV (mean ± standard deviation) [6, 8]: 1.10 ± 0.13; T/C (%) [6, 8]: 16%

`CS(=O)(=O)CCNCc1ccc(-c2ccc3ncnc(Nc4ccc(OCc5cccc(F)c5)c(Cl)c4)c3c2)o1` [Lapatinib, lapatinib, reference compound] was tested. Which “RTV (mean ± standard deviation)” value [4, 9] did it give?
Its value is 1.56 ± 0.18.

And the “T/C (%)” value [4, 9]?
Its value is 62%.

What does the source list for `CC(=O)O[C@H]1C(=O)[C@@]2(C)[C@H]([C@H](OC(=O)c3ccccc3)[C@]3(O)C[C@H](OC(=O)[C@H](O)[C@@H](NC(=O)c4ccccc4)c4ccccc4)C(C)=C1C3(C)C)[C@]1(OC(C)=O)CO[C@@H]1C[C@@H]2O` [Paclitaxel, paclitaxel, reference compound]?
RTV (mean ± standard deviation) [2, 10]: 3.67 ± 0.42; T/C (%) [2, 10]: 41%; RTV (mean ± standard deviation) [5, 11]: 5.77 ± 0.96; T/C (%) [5, 11]: 83%
